For data set [1] the following is noted: cited from earlier work.
Data set [2] has as its system subjects having specific phobias. Conditions: cited from earlier work.
Data set [3] has as its system subjects on chronic dosing schedules (chronically ill with tuberculosis). Conditions: 500-1000 mg/day, side effects correlate with dosage amount; cited from earlier work.
Data set [4] concerns subject afflicted with recurring neuropathic pain. Put plainly: Example 1: treatment of a subject with recurring neuropathic pain. Type of data set: in vivo, human. As for the experimental part: After seven days, the dose of amitriptyline was doubled to 20 mg.
The test system of data set [5] is subject with paralytic sexual performance anxiety. Conditions: subject unresponsive to purely behavioral interventions; cited from earlier work.

Structures can show the parent of a compound that is named as a salt.

The term half-life denotes the time needed for the level to fall by half in the phase considered. Take `N[C@@H]1CON=C1O` [DCS, D-cycloserine]: in data set [1] (after dosing), the “time of peak blood levels after dosing” value is 3 to 8 h. Moreover, the half-life in data set [1] (in vivo) was 10 h. Moreover, the “average number of psychotherapy sessions to reach a clinical cure” value in data set [2] (DCS in conjunction with psychotherapy, psychotherapy alone required an average of eight sessions) was “two”. Further, in data set [2] (DCS with cognitive behavioral therapy sessions, phobic disorders), the “fewer therapy sessions needed to reach clinical cure” value is 75%. Moreover, the infrequent side effects result in data set [3] was “drowsiness, headache, confusion, tremor, vertigo, and memory difficulties, paresthesias, and seizure”.
Turning to `CN(C)CCC=C1c2ccccc2CCc2ccccc21` [amitriptyline hydrochloride], the effect on pain entry is reported as “little effect on the pain” in data set [4] (10 mg per day for seven days) and “substantially subsided” in data set [4] (20 mg per day, after two days on the higher dose).
In the case of `CCCc1nn(C)c2c(=O)[nH]c(-c3cc(S(=O)(=O)N4CCN(C)CC4)ccc3OCC)nc12` [sildenafil], the “response to pharmaceutical treatment” value in data set [5] was “responded to pharmaceutical treatment”.

The record behind these values is patent US8309535B2, “Compositions and methods to treat recurrent medical conditions” (priority 2003, dated 2012).
